From ChEMBL document CHEMBL1201862, “PubChem BioAssay data set” (2004) come the findings set out here.

Test systems include 786-0; HCT-116; Hs-578T; KM12; M14; MCF7; MDA-MB-231; MDA-N; Malme-3M; NCI-H226; OVCAR-8; SF-539; SK-OV-3; SN12C; U-251; A549; HCC 2998; NCI-H460; NCI-H522; SK-MEL-28.
Holding throughout (assay): NCI-60 cell line screen, 48 h

Structures are written as SMILES.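 Compound exposure: 48 hours, 5 concentrations, 96-well plates. The concentration for 50% growth inhibition is given as GI50.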 Calls of active or inactive are those of the source. Cut-off read from the data, not from the text of the source: active = GI50 up to about 1.1 µM and inactive = higher.

Turning to `CNC(=O)C1OC(n2cnc3c(NCc4cccc(I)c4)nc(Cl)nc32)C(O)C1O` (stereo unspecified), the GI50 with 786-0 is 18.6 µM (inactive); in the assay with HCT-116 it was 15.6 µM (inactive); with Hs-578T, 1.55 µM (inactive); with KM12, 12 µM (inactive); with M14 it was 10.3 µM (inactive); with MCF7, 12.8 µM (inactive). In addition, the GI50 with MDA-MB-231 is 22.8 µM (inactive); with MDA-N it was 20.7 µM (inactive); with Malme-3M, 3.64 µM (inactive); in the assay with NCI-H226 it was 7.69 µM (inactive); in the assay with OVCAR-8, 13.8 µM (inactive); with SF-539 it was 11 µM (inactive). For the same compound, the GI50 is 17.2 µM (inactive) with SK-OV-3, 16.6 µM (inactive) in the assay on SN12C and 14.8 µM (inactive) in the assay on U-251.

For `Cc1ccc(SC2=C(N(C)C)C(=O)c3ccccc3C2=O)cc1`, the GI50 was 3.82 µM (inactive) in the assay with 786-0; 12.6 µM (inactive) in the assay with A549; 14 µM (inactive) in the assay with HCC 2998; 1.1 µM (active) in the assay on HCT-116; 4.85 µM (inactive) in the assay on Hs-578T; 3.06 µM (inactive) in the assay on KM12. In addition, the GI50 in the assay with M14 was 3.27 µM (inactive); in the assay on MCF7 it was 2.31 µM (inactive); with MDA-MB-231 it was 4.24 µM (inactive); in the assay with Malme-3M, 4.83 µM (inactive); in the assay with NCI-H226, 9.82 µM (inactive); in the assay on NCI-H460, 6.3 µM (inactive). Besides, the GI50 in the assay on NCI-H522 is 1.22 µM (inactive); in the assay on OVCAR-8, 1.91 µM (inactive); in the assay with SF-539, 2.79 µM (inactive); in the assay with SK-MEL-28, 10.3 µM (inactive); with SK-OV-3 it was 10.7 µM (inactive); with SN12C, 4.92 µM (inactive). In the assay on U-251, the GI50 was 8.05 µM (inactive).

In the case of `O=C(Cn1c2c(c3ccccc31)CCCC2)N1CCCC1`, the GI50 is > 100 µM (inactive) with 786-0; > 100 µM (inactive) in the assay on A549; > 100 µM (inactive) in the assay with HCC 2998; 63.1 µM (inactive) with HCT-116; 22.8 µM (inactive) in the assay with Hs-578T; > 100 µM (inactive) in the assay on M14. The GI50 with MCF7 is > 100 µM (inactive); in the assay with MDA-N, > 100 µM (inactive); with Malme-3M it was > 100 µM (inactive); with NCI-H460 it was > 100 µM (inactive); in the assay with OVCAR-8 it was > 100 µM (inactive); in the assay on SF-539, 69.8 µM (inactive). In addition, the GI50 with SK-MEL-28, with SK-OV-3 and with SN12C was > 100 µM (inactive) throughout.

As for `CCOC(=O)/C(C(=S)NC)=C(/N)N1CCCC1`, the GI50 in the assay with 786-0, with A549, in the assay with HCC 2998, in the assay with HCT-116, in the assay on Hs-578T and in the assay on KM12 was > 100 µM (inactive) throughout. Moreover, the GI50 with M14, in the assay with MDA-MB-231, with MDA-N, in the assay with Malme-3M, in the assay with NCI-H226 and with NCI-H460 was > 100 µM (inactive) in each case. For the same compound, the GI50 in the assay on NCI-H522, with OVCAR-8, in the assay with SF-539, in the assay with SK-MEL-28, with SK-OV-3 and in the assay with SN12C was > 100 µM (inactive) throughout. For the same compound, the GI50 in the assay on U-251 is > 100 µM (inactive).

Regarding `Cc1nc2ccccc2c(=O)n1NC(=O)c1ccc(N)cc1`, the GI50 in the assay on 786-0, with A549, in the assay on HCC 2998, with HCT-116, in the assay with KM12 and in the assay with M14 was > 100 µM (inactive) each time. Also, the GI50 with MCF7, in the assay on MDA-MB-231, in the assay on MDA-N, in the assay on Malme-3M, with NCI-H226 and in the assay with NCI-H460 was > 100 µM (inactive) throughout. Besides, the GI50 in the assay with NCI-H522, with OVCAR-8, in the assay on SF-539, with SK-MEL-28, in the assay on SK-OV-3 and in the assay on SN12C was > 100 µM (inactive) each time. Also, the GI50 in the assay with U-251 was > 100 µM (inactive).

As for `N#Cc1c(N)n(-c2cccc(C(=O)O)c2)c(=O)c2cc([N+](=O)[O-])ccc12`, the GI50 is > 100 µM (inactive) in the assay on 786-0; 0.505 µM (active) in the assay on A549; > 100 µM (inactive) with HCC 2998; > 100 µM (inactive) in the assay with HCT-116; > 100 µM (inactive) in the assay on Hs-578T; > 100 µM (inactive) with KM12. Further, the GI50 with MDA-MB-231, with MDA-N, with NCI-H226, with NCI-H460, in the assay on OVCAR-8 and with SK-MEL-28 was > 100 µM (inactive) in each case. In addition, the GI50 with SN12C and in the assay with U-251 was > 100 µM (inactive) throughout.

`Cn1c(-c2c(C3=CC(=O)N(c4ccccc4)C3=O)c3ccccc3n2C)cc2ccccc21`: the GI50 is > 100 µM (inactive) in the assay with 786-0; > 100 µM (inactive) in the assay on A549; > 100 µM (inactive) in the assay with HCC 2998; > 100 µM (inactive) in the assay with HCT-116; 21.8 µM (inactive) in the assay on KM12; > 100 µM (inactive) with M14. Moreover, the GI50 in the assay on MCF7 is > 100 µM (inactive); in the assay with MDA-MB-231, > 100 µM (inactive); in the assay on MDA-N it was > 100 µM (inactive); in the assay with Malme-3M, 7.41 µM (inactive); with NCI-H226, > 100 µM (inactive); with NCI-H460 it was > 100 µM (inactive). The GI50 with NCI-H522 was 50 µM (inactive); in the assay on OVCAR-8 it was > 100 µM (inactive); in the assay on SF-539 it was > 100 µM (inactive); with SK-MEL-28, > 100 µM (inactive); in the assay with SK-OV-3 it was 4.38 µM (inactive); in the assay on SN12C, > 100 µM (inactive). Moreover, the GI50 with U-251 is > 100 µM (inactive).

As to `N#Cc1ccc(N2CCOCC2)cc1`, the GI50 in the assay with 786-0, in the assay with A549, in the assay with HCT-116, in the assay on Hs-578T, with KM12 and with M14 was > 100 µM (inactive) in each case. The GI50 in the assay on MCF7 is > 100 µM (inactive); in the assay on MDA-MB-231, > 100 µM (inactive); in the assay on MDA-N, > 100 µM (inactive); in the assay with NCI-H460 it was > 100 µM (inactive); with NCI-H522 it was 34.2 µM (inactive); in the assay with OVCAR-8 it was > 100 µM (inactive). Also, the GI50 with SF-539, with SK-MEL-28, with SK-OV-3, in the assay with SN12C and with U-251 was > 100 µM (inactive) in each case.

For `CN(C)/N=C1/CCC(C(F)(F)F)(C(F)(F)F)O1`, the GI50 is 29.4 µM (inactive) in the assay on 786-0; 37.5 µM (inactive) in the assay with A549; 30.6 µM (inactive) in the assay on HCC 2998; 29.7 µM (inactive) in the assay on HCT-116; 39.2 µM (inactive) with Hs-578T; 20.7 µM (inactive) with KM12. Besides, the GI50 in the assay on M14 is 25.1 µM (inactive); with MDA-MB-231 it was 25.4 µM (inactive); in the assay on MDA-N, 48.3 µM (inactive); in the assay on Malme-3M, 23.3 µM (inactive); in the assay on NCI-H226, 26.3 µM (inactive); in the assay with NCI-H460, 41 µM (inactive). The GI50 is 35.2 µM (inactive) in the assay on NCI-H522; 45.4 µM (inactive) with SF-539; 39.6 µM (inactive) in the assay on SK-MEL-28; 38.3 µM (inactive) in the assay with SK-OV-3; 27.8 µM (inactive) in the assay with SN12C; 39 µM (inactive) in the assay with U-251.

As for `C(=N\c1ccc(-c2nc3ccccc3s2)cc1)/c1ccc[nH]1`, the GI50 with 786-0 is 21.9 µM (inactive); with A549, 25.6 µM (inactive); in the assay with HCC 2998, 16.5 µM (inactive); in the assay with HCT-116, 16.1 µM (inactive); with Hs-578T, 19.7 µM (inactive); in the assay with KM12, 20.2 µM (inactive). Further, the GI50 in the assay with M14 was 17.9 µM (inactive); in the assay on MDA-N, 18 µM (inactive); in the assay on Malme-3M, 18.2 µM (inactive); in the assay on NCI-H226, 14.8 µM (inactive); with NCI-H460, 17.1 µM (inactive); with NCI-H522, 14.1 µM (inactive). Also, the GI50 in the assay on OVCAR-8 is 27.6 µM (inactive); in the assay with SF-539 it was 17.6 µM (inactive); with SK-MEL-28, 20.1 µM (inactive); with SK-OV-3, 17.7 µM (inactive); with SN12C, 19.5 µM (inactive); in the assay with U-251 it was 14.4 µM (inactive).

`CC1(C(=O)O)C[C@](C)(C(=O)OCc2ccccc2)C[C@](C)(C(=O)OCc2ccccc2)C1` (stereo partly specified): the GI50 with 786-0 was 32 µM (inactive); with A549 it was 35.6 µM (inactive); with HCC 2998, 27 µM (inactive); in the assay on HCT-116, 24.1 µM (inactive); with Hs-578T, 30.3 µM (inactive); in the assay with KM12 it was 31.2 µM (inactive). The GI50 in the assay on M14 was 45.6 µM (inactive); in the assay with MCF7 it was 34.1 µM (inactive); in the assay with MDA-N, 36 µM (inactive); in the assay with Malme-3M, 63.2 µM (inactive); in the assay with NCI-H226, 27.3 µM (inactive); with NCI-H460, 23.9 µM (inactive). Moreover, the GI50 was 21.6 µM (inactive) in the assay on NCI-H522; 34.5 µM (inactive) in the assay with OVCAR-8; 25.8 µM (inactive) in the assay on SF-539; 50.2 µM (inactive) in the assay on SK-MEL-28; 32.6 µM (inactive) in the assay with SK-OV-3; 30.2 µM (inactive) in the assay on SN12C.
